Laboratory results: patent US9676719B2, “Phenyl derivative” (ONO PHARMACEUTICAL CO., LTD., priority 2013, dated 2017)
In brackets after ≈: the same amount, converted by molar mass.

How the values were obtained:
[1] = Solubility measurement; format: physicochemical; settings: aqueous buffer, kinetic from dmso stock; second solution of Japanese Pharmacopoeia (pH 6.8), room temperature, stirring 5 hours, LC-MS/MS
Protocol: A solution for obtaining a calibration curve was prepared by diluting a test substance (10 mmol/L, DMSO solution) in acetonitrile and adding acetonitrile containing an internal standard substance (warfarin) to adjust to 0.1, 0.4 and 2 μmol/L. A sample solution was prepared by adding to 495 μL (pH 6.8) of the second solution defined in Japanese Pharmacopoeia (a solution used was obtained by adding water to 250 mL of a 0.2 mol/L potassium dihydrogen phosphate reagent solution and 118 mL of a 0.2 mol/L sodium hydroxide reagent solution to adjust to 1000 mL) 5 μL of a test substance (10 mmol/L, DMSO solution), stirring at room temperature for 5 hours, transferring the obtained solution to a plate with a filter for vacuum filtration, diluting 20 μL of the filtrate with acetonitrile and adding acetonitrile containing the internal standard. The solution for obtaining a calibration curve and the sample solution (5 μL each) were injected to LC-MS/MS (Discovery Max from Thermo Scientific) for quantification (quantification range: 0.1 to 2 μmol/L). The solubility was calculated by multiplying the quantified value by 50. When the quantified value was outside of the quantification range, the solubility was expressed as <5 μmol/L or 100 μmol/L.

[2] = target: T1, human S1P2 (EDG-5) (Homo sapiens, UniProt O95136); experiment: S1P2 (EDG-5) antagonistic activity by monitoring the change in intracellular calcium ion concentration (human); format: cell-based; settings: CHO cells overexpressing human S1P2 (EDG-5) gene; suppression of S1P (30 or 300 nM)-induced intracellular calcium increase, Fura2-AM
T1 construct: expressed in transfected cells; host or cells: CHO cells (G418 selection)
Protocol: (§1) Chinese hamster ovary (CHO) cells overexpressing the human S1P2 (EDG-5) gene were cultured in a Ham's F12 medium containing 10% fetal bovine serum (FBS), an antibiotic/antifungal agent and G418. CHO cells overexpressing the rat S1P2 (EDG-5) gene were cultured in a Ham's F12 medium containing 10% FBS, penicillin/streptomycin and blasticidin S. The cultured cells were incubated in a Fura2-AM solution (5 μM) [a Ham's F12 medium containing FBS (10%), HEPES buffer (20 mM, pH 7.2 to 7.5) and probenecid (2.5 mM)] at 37° C. for 60 minutes. The cells were washed twice with a Hanks' balanced saline containing HEPES buffer (20 mM, pH 7.2 to 7.5) and probenecid (2.5 mM) and immersed in the same solution. A plate was mounted on a fluorescence-based drug screening system and the intracellular calcium ion concentration was measured for 30 seconds without stimulation. A test substance (the final concentration of human S1P2: 0.25 nM to 25 μM and the final concentration of rat S1P2: 0.25 nM to 2.5 μM) or a dimethyl sulphoxide (DMSO) solution was added and after 3 minutes S1P (final concentration: 30 or 300 nM) was added and the increase in the intracellular calcium ion concentration before and after the addition of S1P was measured with an interval of 3 seconds (excitation wavelength: 340 nm and 380 nm, fluorescence wavelength: 540 nm).
(§2) The S1P2 (EDG-5) antagonistic activity was calculated as a suppression (%) from the following formula, wherein A is a control value which was a peak value after addition of S1P (final concentration: 30 or 300 nM) in the wells added with DMSO without a test substance and B is an increased amount after addition of S1P in the cells treated with the test substance: [M 1] Suppression (%)=[(A−B)/A]×100
(§3) Comparative compounds used were the compounds disclosed in Example 1 (64) (hereinafter referred to as comparative compound A) and Example 1 (85) (hereinafter referred to as comparative compound B) in Patent Document 3 (WO 2004/002531). The structural formulae of the comparative compounds are shown below respectively.

[3] = target: T2, rat S1P2 (EDG-5) (Rattus norvegicus, UniProt P47752); experiment: S1P2 (EDG-5) antagonistic activity by monitoring the change in intracellular calcium ion concentration (rat); format: cell-based; settings: CHO cells overexpressing rat S1P2 (EDG-5) gene; suppression of S1P (30 or 300 nM)-induced intracellular calcium increase, Fura2-AM
T2 construct: expressed in transfected cells; host or cells: CHO cells (blasticidin S selection)
Protocol: as §1, §2, §3

T1 sequence (O95136 whole entry): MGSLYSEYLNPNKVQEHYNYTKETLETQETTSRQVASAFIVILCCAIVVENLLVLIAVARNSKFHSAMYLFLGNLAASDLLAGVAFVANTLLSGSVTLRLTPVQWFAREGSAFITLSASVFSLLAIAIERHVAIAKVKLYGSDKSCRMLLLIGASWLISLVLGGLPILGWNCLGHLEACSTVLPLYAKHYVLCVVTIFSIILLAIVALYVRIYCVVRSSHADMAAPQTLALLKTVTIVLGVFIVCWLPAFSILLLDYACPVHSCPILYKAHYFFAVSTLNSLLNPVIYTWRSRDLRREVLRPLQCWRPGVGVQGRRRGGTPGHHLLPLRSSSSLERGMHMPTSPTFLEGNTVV
T2 sequence (P47752 whole entry): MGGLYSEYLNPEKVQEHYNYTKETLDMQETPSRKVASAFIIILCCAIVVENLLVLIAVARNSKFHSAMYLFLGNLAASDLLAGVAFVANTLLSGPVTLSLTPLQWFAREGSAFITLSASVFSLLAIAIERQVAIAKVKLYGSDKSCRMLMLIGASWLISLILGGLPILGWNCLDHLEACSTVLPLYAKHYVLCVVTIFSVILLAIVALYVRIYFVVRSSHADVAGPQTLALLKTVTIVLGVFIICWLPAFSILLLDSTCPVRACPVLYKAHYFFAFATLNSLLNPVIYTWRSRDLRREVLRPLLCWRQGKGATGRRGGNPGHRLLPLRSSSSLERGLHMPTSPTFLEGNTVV

Row | solubility at 5 h [1] | IC50 [2] | IC50 [3] | Structure (SMILES)
1 | < 5 µM |  |  | CCC(CC)CC1(O)CCN(C(=O)Nc2cc(F)cc(C(F)(F)F)c2)CC1 [Comparative compound A, reference compound]
2 | 72 µM (≈ 41 µg/mL) | 4.6 nM | 9.4 nM | CS(=O)(=O)NC(=O)c1ccc(Oc2cc(NC(=O)N3CCC(O)(C4CCCC4)CC3)cc(C(F)(F)F)c2)cc1 [Example 5 (1), 4-cyclopentyl-4-hydroxy-N-[3-{4-[(methylsulphonyl)carbamoyl]phenoxy}-5-(trifluoromethyl)phenyl]-1-piperidine carboxamide]
3 | 74 µM (≈ 41.5 µg/mL) | 8.4 nM | 5.1 nM | O=C(Nc1cc(Oc2ccc(C3(C(=O)O)CCCC3)cc2)cc(C(F)(F)F)c1)N1CCC(O)(C2CCCCC2)C1 (stereo not shown) [Example 5 (7), 1-{4-[3-{[(3-cyclohexyl-3-hydroxy-1-pyrrolidinyl)carbonyl]amino}-5-(trifluoromethyl)phenoxy]phenyl}cyclopentanecarboxylic acid]
4 | 90 µM (≈ 49.6 µg/mL) | 7.3 nM | 3 nM | CC(C)CC1(O)CCN(C(=O)Nc2cc(C(=O)Oc3ccc(C(C)(C)C(=O)O)cc3)cc(C(F)(F)F)c2)CC1 [Example 8, 2-(4-{[3-{[(4-hydroxy-4-isobutyl-1-piperidinyl)carbonyl]amino}-5-(trifluoromethyl)benzoyl]oxy}phenyl)-2-methylpropanoic acid]

Row | Structure (SMILES) | solubility at 5 h [1] | IC50 [2] | IC50 [3]
5 | CCC(CC)CC1(O)CCN(C(=O)Nc2cccc(Oc3ccc(F)cc3)c2)CC1 [Comparative compound B, reference compound] | < 5 µM | 1200 nM | 27 nM
